According to patent US11649236B2, “Polycyclic carbamoylpyridone derivative” (Shionogi & Co., Ltd., priority 2018, dated 2023):

What was measured:
[1] = Metabolic stability test; format: in vitro ADME, human; parameters: key: % remaining vs amount at 0 min (=100%)
Protocol: Commercially available pooled human liver microsomes were reacted with the compound of the present invention for a certain time. A residual rate was calculated by the comparison between the reacted sample and an unreacted sample to evaluate the degree at which the compound of the present invention is metabolized in the liver. A reaction was performed (oxidative reaction) at 37° C. for 0 minutes or 30 minutes in the presence of 1 mmol/L NADPH in 0.2 mL of a buffer (50 mmol/L Tris-HCl pH 7.4, 150 mmol/L potassium chloride, 10 mmol/L magnesium chloride) containing 0.5 mg protein/mL of human liver microsomes. After the reaction, 50 μL of the reaction solution was added to 100 μL of a solution of methanol/acetonitrile=1/1 (v/v) and mixed, and the mixture was centrifuged at 3000 rpm for 15 minutes. The compound of the present invention in the centrifugation supernatant was quantified by LC/MS/MS or solid-phase extraction (SPE)/MS. The amount of the compound of the present invention remaining after the reaction was calculated with the amount of the compound at 0 minutes of the reaction defined as 100%.

[2] = test system: HIV mutant strain 1 (E138K/G140S/Q148H/N155H); experiment: Resistance evaluation test (HeLa-CD4 reporter), mutant strain 1; format: cell-based; details: FC=EC50 of mutant strain/EC50 of wild strain, HeLa-CD4 cells
Protocol: (§1) Serial dilutions of a test sample were prepared in a96-well microplate (50 μL/well). 2.5×10^5 cells/mL of a HeLa-CD4 cell suspension was dispensed at 100 μL/well to the plate containing the test sample. Then, an HIV virus solution (wild strain and mutant strain) was dispensed at 50 μL/well. The plate was mixed with a plate mixer and cultured for 3 days in a CO2 incubator. The culture supernatant in each well was removed by suction. A cell lysis buffer in a reporter assay kit was dispensed at 100 μL/well, and the plate was frozen in a freezer (−80° C.). The plate frozen in a freezer was thawed at room temperature, then mixed with a plate mixer, and centrifuged at 1,200 rpm for 5 minutes. The supernatant of each well was dispensed at 20 μL/well to a 96-well microplate (BLACK). A chemiluminescent reagent in the reporter assay kit was dispensed at 100 μL/well and reacted at room temperature for approximately 1 hour. Then, luminescence intensity was measured using MicroBeta TRILUX. […] FC=EC50 of mutant strain/EC50 of wild strain (Results) FC for the mutant strain 1 (E138K/G140S/Q148H/N155H) and FC for the mutant strain 2 (E92Q/E138T/G140S/Q148H) are shown in the table.

[3] = test system: HIV; experiment: Anti-HIV activity (MT-4 cells, MTT); format: cell-based; details: Human immunodeficiency virus 1, MT4, 96 h, cultured 4 days
In short: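 MT-4 cells (2.5×10^5 cells/mL) mixed with serial dilutions of test sample and HIV, cultured 4 days in CO2 incubator. MTT added for 1 h, cells lysed, absorbance read at 560 nm and 690 nm.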

[4] = test system: HIV mutant strain 2 (E92Q/E138T/G140S/Q148H); experiment: Resistance evaluation test (HeLa-CD4 reporter), mutant strain 2; format: cell-based; details: FC=EC50 of mutant strain/EC50 of wild strain, HeLa-CD4 cells
Protocol: as §1

[5] = human, 30 min, 0.5 μmol/L, pH 7.4
[6] = compound 0.5 μmol/L, human liver microsomes 0.5 mg protein/mL, NADPH, 37° C., 30 minutes, amount at 0 minutes defined as 100%

| Compound | residual rate [1, 5] | FC mutant strain 1 [2] | EC50 [3] | FC mutant strain 2 [4] | residual rate [1, 6] |
| --- | --- | --- | --- | --- | --- |
| CCN1C(=O)c2c(O)c(=O)c(C(=O)NCc3ccc(F)cc3F)cn2N2[C@H]3COC[C@H]3C[C@@H]12 [II-136] | 77.2 | 78 | 650 pM | 110 |  |
| COC[C@@H]1CC[C@H]2N(C(C)C)C(=O)c3c(O)c(=O)c(C(=O)NCc4ccccc4F)cn3N12 [II-009] |  | 4.6 | 2600 pM | 7.7 | 80.8 |
| CCN1C(=O)c2c(O)c(=O)c(C(=O)NCc3ccc(F)cc3)cn2N2CCCC[C@@H]12 [II-077] |  | 32 | 1100 pM | 36 | 100 |
| C[C@H]1CC[C@H]2N(C)C(=O)c3c(O)c(=O)c(C(=O)NCc4cccc(Cl)c4F)cn3N2C1 [II-024] |  | 7.3 | 1400 pM | 7 | 84.1 |
| CCN1C(=O)c2c(O)c(=O)c(C(=O)NCc3ccc(F)cc3F)cn2N2C[C@H](COC)C[C@@H]12 [II-105] |  | 48 | 580 pM | 62 | 84.3 |
| CN1C(=O)c2c(O)c(=O)c(C(=O)NCc3cccc(F)c3F)cn2N2CCCC[C@@H]12 [II-104] |  | 48 | 690 pM | 17 | 96.9 |
| CC(C)N1C(=O)c2c(O)c(=O)c(C(=O)NCc3ccc(F)cc3F)cn2N2C[C@@H]3CC[C@@H](O3)[C@@H]12 [II-021] |  | 6.6 | 720 pM | 9 | 89.1 |
| C[C@H]1CC[C@H]2N(C)C(=O)c3c(O)c(=O)c(C(=O)NCc4ccc(Cl)cc4F)cn3N2C1 [II-090] |  | 38 | 3200 pM | 25 | 95.7 |
| CCN1C(=O)c2c(O)c(=O)c(C(=O)NCc3ccc(F)cc3F)cn2N2C[C@@H](COC)C[C@@H]12 [II-041] |  | 15 | 660 pM | 28 | 94.3 |
| CN1C(=O)c2c(O)c(=O)c(C(=O)NCc3cccc(Cl)c3F)cn2N2C[C@@H]3CCC[C@@H](C3)[C@@H]12 [II-153] |  | 18 | 740 pM | 10 | 75.4 |
| CC(C)N1C(=O)c2c(O)c(=O)c(C(=O)NCc3ccc(F)cc3F)cn2N2CCOC[C@@H]12 [II-026] |  | 8.1 | 180 pM | 14 | 87.5 |
| CCN1C(=O)c2c(O)c(=O)c(C(=O)NCc3c(F)cc(F)cc3F)cn2N2C[C@@H](C)C[C@@H]12 [II-049] |  | 18 | 770 pM | 17 | 83.2 |
| CCN1C(=O)c2c(O)c(=O)c(C(=O)NCc3ccc(F)cc3F)cn2N2[C@H](COC)CC[C@@H]12 [II-093] |  | 39 | 320 pM | 38 | 97.5 |
| CCN1C(=O)c2c(O)c(=O)c(C(=O)NCc3ccc(F)nc3F)cn2N2C[C@@H]3CC[C@@H](O3)[C@@H]12 [II-157] |  | 36 | 2200 pM | 25 | 105 |
| CN1C(=O)c2c(O)c(=O)c(C(=O)NCc3cccc(Cl)c3F)cn2N2C[C@@H]3CC[C@@H](O3)[C@@H]12 [II-066] |  | 25 | 170 pM | 15 | 97.7 |
| CN1C(=O)c2c(O)c(=O)c(C(=O)NCc3c(F)cc(F)cc3F)cn2N2CCCC[C@@H]12 [II-087] |  | 38 | 1400 pM | 14 | 105 |
| CCN1C(=O)c2c(O)c(=O)c(C(=O)NCc3ccc(F)cc3F)cn2N2CCCC[C@@]12C [Compound I-006] |  | 24 | 760 pM | 16 | 92.5 |
| CCN1C(=O)c2c(O)c(=O)c(C(=O)NCc3ccc(F)cc3F)cn2N2C[C@@H]3CCC[C@@H](C3)[C@@H]12 [II-018] |  | 6.1 | 2900 pM | 8.7 | 77.6 |
| CCN1C(=O)c2c(O)c(=O)c(C(=O)NCc3c(F)cc(F)cc3F)cn2N2C[C@@H]3CC[C@@H](C3)[C@@H]12 [II-015] |  | 5.7 | 950 pM | 7.3 | 74.3 |
| CC(C)N1C(=O)c2c(O)c(=O)c(C(=O)NCc3ccccc3F)cn2N2C[C@@H]3CC[C@@H](O3)[C@@H]12 [II-013] |  | 5.6 | 400 pM | 6.4 | 87 |
| CCN1C(=O)c2c(O)c(=O)c(C(=O)NCc3c(F)cc(F)cc3F)cn2N2C[C@@H]3CC[C@@H](O3)[C@@H]12 [II-046] |  | 17 | 190 pM | 28 | 88.4 |
| CN1C(=O)c2c(O)c(=O)c(C(=O)NCc3cccc(Cl)c3F)cn2N2CCCC[C@@]12C [II-099] |  | 44 | 330 pM | 26 | 88.6 |
| CCN1C(=O)c2c(O)c(=O)c(C(=O)NCc3c(F)cc(F)cc3F)cn2N2C[C@@H](C)CC[C@@H]12 [II-020] |  | 6.4 | 1500 pM | 8.9 | 90.7 |
| CN1C(=O)c2c(O)c(=O)c(C(=O)NCc3cccc(Cl)c3F)cn2N2[C@H]3COC[C@H]3C[C@@H]12 [II-133] | 101 | 76 | 430 pM | 17 |  |
| CC(C)N1C(=O)c2c(O)c(=O)c(C(=O)NCc3c(F)cc(F)cc3F)cn2N2C[C@@H]3CC[C@@H](O3)[C@@H]12 [II-005] |  | 3.1 | 620 pM | 7.4 | 80.2 |
| CC(C)N1C(=O)c2c(O)c(=O)c(C(=O)NCc3c(F)cc(F)cc3F)cn2N2[C@H]3COC[C@H]3C[C@@H]12 [II-048] | 73.3 | 17 | 550 pM | 34 |  |
| CCN1C(=O)c2c(O)c(=O)c(C(=O)NCc3ccc(F)cc3F)cn2N2C[C@@H]3CCC[C@@H](O3)[C@@H]12 [II-156] |  | 26 | 330 pM | 16 | 98.6 |
